In series [1] the test system is AML KG-1 human myeloid cell line. The series can be described thus: Test A: apoptosis induction in AML KG-1 cell line. In kind it is cell-based. The source says:
Inhibition of Cell Growth and Induction of Apoptosis in AML KG-1 Human Myeloid Cell Line.
Methods for measuring the inhibition of cell growth and induction of apotosis followed literature procedures (Dawson, M. I., et al., J. Med. Chem., 2007, 50, 2622-2639).

The next series concerns TF(v-SRC) cells. The series can be described thus: Test B: apoptosis of TF(v-SRC) cells (acridine orange/ethidium bromide, nuclear fragmentation). In kind it is cell-based. The note with it: FIG. 2C. The method, then: FIG. 2 illustrates apoptosis induction in FFMA-AML and TF(v-SRC) cells by 3-Cl-AHPC and compound 16. Cells were seeded at 1×10^4 cells/ml, grown for 24 h and then exposed to 1 μM compound 16 or 3-Cl-AHPC A) at various concentrations of the compound for 96 h and B) for increasing times of exposure. C) Induction of apoptosis by 3-Cl-AHPC, all-trans-retinoic acid, 9-cis-retinoic acid and TTNPB in FFMA-AML and TF(v-SRC) cells. The percentage of apoptotic cells was determined using acridine orange and ethidium bromide staining to determine nuclear fragmentation as described in the general biochemical and pharmacological materials and methods. The error bars represent the mean of three separate determinations +/− the standard deviation (SD).
FFMA-AML cells were obtained from a patient with a diagnosis of AML as indicated by the immunophenotyping described in Table 1. This patient was refractory to the chemotherapy regimens consisting of cytosine arabinoside given with daunomycin as well as high-dose cytosine arabinoside. Peripheral blood samples were obtained from the patient utilizing a Wayne State University Institutional Review Board approved protocol and the leukemic blasts were isolated utilizing Ficoll hypaque. The isolated leukemic cells (representing >99% of the cells) were subsequently cultured in RPMI 1640 supplemented with 10% heat-inactivated fetal bovine serum (FBS) and growth factors interleukin 3 (IL-3), granulocyte-colony stimulating factor (G-CSF), granulocyte/macrophage colony-stimulating factor (GM-CSF), and stem cell factor (SCF) as we have previously reported, and then the cells were maintained in 10% FBS and gentamycin (Zhang Y. et al., Blood, 2003; […]:3743-3752). The TF(v-SRC) leukemia cells have been previously described (Black J. H. et al., Leukemia. 2003; 17:155-159). TF(v-SRC) cells were grown in RPMI 1640 supplemented with 10% heat inactivated FBS.
Apoptosis of cells was determined by (1) acridine orange and ethidium bromide-staining to assess cells with nuclear fragmentation and chromatin condensation as previously described (Farhana L. et al., Cancer Res. 2006; 65:4909-4917) and (2) flow cytometry assessing Annexin V-FITC binding together with propidium iodide staining (Annexin V-FITC apoptosis Detection kit 1, BD Biosciences, San Diego, Calif.). Data acquisition was done on a FACS Calibur flow cytometer (BD) and analyzed with CellQuest software.
Cells were grown in the presence and absence of increasing concentrations of either 3-Cl-AHPC or compound 16 and for varying periods of time. There was a progressive increase in 3-Cl-AHPC- and compound 16-mediated apoptosis in both FFMA-AML and TF(v-SRC) cells with time and with increasing concentrations of the compounds. […] We therefore tested the sensitivity of FFMA-AML and TF(v-SRC) cells to apoptosis induction by tRA, 9-cis RA, and TTNPB (FIG. 2C).

Series [2] in a line: Test H: aqueous solubility by UV absorbance. The note with it: thermodynamic from solid, 22° C. In kind it is physicochemical. The method, then: Standard curves at the UV λmax (330, 350 and 345 nm for 3-Cl-AHPC, 18 and 16, respectively) were generated using 0.245, 0.163, 0.049 and 0.025 mM 3-Cl-AHPC and 0.380, 0.178, 0.053 and 0.027 mM 18 and 16, which were prepared from 1.0% (wt/vol) solutions of compounds in Me2SO. […] Measurements for maximum solubilities in distilled water (pH 5) and phosphate-buffered saline (PBS, pH 7.2) at 22° C. were made by UV absorbance using solutions obtained after saturation at higher temperatures, overnight incubation at 22° C., and centrifugation to remove undissolved material.

In series [3] the test system is acute promyelocytic leukemia (APL). The note with it: pharmacologic concentrations; cited from earlier work.

Values after ≈ are worked out from the molar mass of the structure shown. Where two headings read alike, the source gives them in different places.

With `O=C(O)/C=C/c1ccc(-c2ccc(O)c(C34CC5CC(CC(C5)C3)C4)c2)c(Cl)c1`, in series [1] (treatment time 48 h), the “Apoptosis Induction (% control) 1.0 μM” value was 30 % control and the “Apoptosis Induction (% control) 5.0 μM” value is given as 55 % control.

As for `O=C(O)/C=C/c1ccc(-c2ccc(O)c(C34CC5CC(CC(C5)C3)C4)c2)nc1`, in series [1] (treatment time 48 h), the “Apoptosis Induction (% control) 1.0 μM” value was determined as 48 % control and the “Apoptosis Induction (% control) 5.0 μM” value was 59 % control.

Regarding `CC(=O)Oc1ccc(-c2ccc(/C=C/C(=O)O)cn2)cc1C12CC3CC(CC(C3)C1)C2`, in series [1] (treatment time 48 h), the “Apoptosis Induction (% control) 1.0 μM” value stood at 0 % control and the “Apoptosis Induction (% control) 5.0 μM” value came to 0 % control.

With `O=C(O)/C=C/c1ccc(-c2ccc(O)c(C34CC5CC(CC(C5)C3)C4)c2)nn1`, in series [1] (treatment time 48 h), the “Apoptosis Induction (% control) 1.0 μM” value stood at 52 % control and the “Apoptosis Induction (% control) 5.0 μM” value turned out to be 67 % control.

On to `O=C(O)/C=C/c1cnc(-c2ccc(O)c(C34CC5CC(CC(C5)C3)C4)c2)c(Cl)c1`, for which, in series [1] (treatment time 48 h), the “Apoptosis Induction (% control) 1.0 μM” value is 55 % control and the “Apoptosis Induction (% control) 5.0 μM” value came to 65 % control.

Turning to `O=C(O)/C=C/c1ccc(-c2ccc(O)c(C34CC5CC(CC(C5)C3)C4)c2)cn1`, in series [1] (treatment time 48 h), the “Apoptosis Induction (% control) 1.0 μM” value is reported as 36 % control and the “Apoptosis Induction (% control) 5.0 μM” value was 52 % control.

As to `CC1=C(/C=C/C(C)=C\C=C\C(C)=C\C(=O)O)C(C)(C)CCC1` [Compound 9-cis-RA, 9-cis-retinoic acid], the induction of apoptosis result in the series on TF(v-SRC) cells is listed as “no real increase in apoptosis”.

`O=C(O)CNc1cnc(-c2ccc(O)c(C34CC5CC(CC(C5)C3)C4)c2)nc1` [Compound 17, 2-[3-(1-Adamantyl)-4-hydroxyphenyl]-5-(carboxymethylamino)pyrimidine]: the melting point (as a rule, the temperature of the solid-liquid transition) was 235 °C (dec.).

Consider `CCOC(=O)/C=C/c1ccc(-c2ccc(O)c(C34CC5CC(CC(C5)C3)C4)c2)nc1` [Compound 18, Ethyl(E)-3-{6-[3′-(1-adamantyl)-4′-hydroxyphenyl]-3-pyridinyl}-2-propenoate], for which the melting point was in the range of 215 to 217 °C. For the same compound, the solubility (usually the dissolved amount per volume that the medium holds) in series [2] (phosphate-buffered saline, aqueous buffer, PBS pH 7.2, read-out: Solubility (μM) at 22° C. PBS (pH 7.2)) was found to be 14 µM (≈ 5.65 µg/mL). Also, the solubility in series [2] (distilled water pH 5, read-out: Solubility (μM) at 22° C. Distilled water (pH 5)) was determined as 7 µM (≈ 2.82 µg/mL).

Consider `O=C(O)/C=C/c1cnc(-c2ccc(O)c(C34CC5CC(CC(C5)C3)C4)c2)cn1` [Compound 23, (E)-3-{2-[3-(1-Adamantyl)-4-hydroxyphenyl]-5-pyrazinyl}-2-propenoic Acid], for which the melting point was 296 °C (dec.).

`C/C(=C\c1ccc(C(=O)O)cc1)c1ccc2c(c1)C(C)(C)CCC2(C)C` [TTNPB]: in the series with TF(v-SRC) cells, the induction of apoptosis result is “no real increase in apoptosis”.

Regarding `O=C(O)/C=C/c1cnc(-c2ccc(O)c(C34CC5CC(CC(C5)C3)C4)c2)nc1` [drawing 23], in series [1] (treatment time 48 h), the “Apoptosis Induction (% control) 1.0 μM” value amounted to 40 % control and the “Apoptosis Induction (% control) 5.0 μM” value stood at 50 % control.

For the compound `O=C(O)CNc1cnc(-c2ccc(O)c(C34CC5CC(CC(C5)C3)C4)c2)nc1` [drawing 24], in series [1] (treatment time 48 h), the “Apoptosis Induction (% control) 1.0 μM” value was 0 % control and the “Apoptosis Induction (% control) 5.0 μM” value was 0 % control.

Take `CCOC(=O)/C=C/c1ccc(-c2ccc(O)c(C34CC5CC(CC(C5)C3)C4)c2)nc1` [drawing 25]: in series [1] (treatment time 24 h), the “Apoptosis Induction (% control) 1.0 μM” value is listed as 60 % control and the “Apoptosis Induction (% control) 5.0 μM” value is 68 nd % control. The “Apoptosis Induction (% control) 1.0 μM” value in series [1] (treatment time 48 h) is listed as 55 % control.

With `O=C(O)/C=C/c1cnc(-c2ccc(O)c(C34CC5CC(CC(C5)C3)C4)c2)cn1` [drawing 30], in series [1] (treatment time 48 h), the “Apoptosis Induction (% control) 1.0 μM” value came to 39 % control and the “Apoptosis Induction (% control) 5.0 μM” value is on record as 50 % control.

With `CC1=C(/C=C/C(C)=C/C=C/C(C)=C/C(=O)O)C(C)(C)CCC1` [tRA, all-trans-retinoic acid], the induction of apoptosis entry in the series on TF(v-SRC) cells is reported as “no real increase in apoptosis”. In addition, the “patients achieving a complete remission” value in series [3] is on record as 90%.

(Values after patent US9096544B2, “Therapeutic compounds” (Wayne State University, priority 2009, dated 2015).)
